Data from patent US7109329B2, “Neurologically active compounds and compounds with multiple activities” (priority 1988, dated 2006).

Legend:
[1] = Spinal cord transection in rats: recovery of hind limb function and reflexes under treatment; assay type: in vivo, rat
Protocol: The spinal cord of a group of rats was completely transected. After surgery, the rats were treated with guanabenz.
The rats presented with a condition of bloody eyes and nose for a period of 2 to 5 days after the transection. During the first two-weeks, proper plantar placement, weight bearing on the hind limbs and/or coordinated walking was not present.
In a further group of six rats the spinal cord was transected in accordance with the above Comparative Examples. After surgery and cleaning and mechanical treatment of the wounds in the same fashion, an intraperitoneal injection of 7-(guanidino-acetyl-theophylline (“C”) was administered at a dose of 5.0 mg/kg 24 hours post surgery. Within a 7 to 9 day period, the rats engaged in walking movements of the hind limbs coordinated with those of the front limbs and the hind limbs, including proper plantar placement and full weight bearing on the hind limbs.
Within 36 hours after the spinal cord transection, i.e., only 12 hours after initial administration of Compound C, the initial bloody eyes and nose condition had abated. […] Further the animals were alert and continued to eat in substantially normal quantities.
Starting 24 hours post-transection, immediately after each intraperitoneal administration of Compound C, reflexes such as the tail-flick and cross-extension would return, within 12 minutes post injection. […] Within 8 to 11 days the response became sustained, and was accompanied by long-term therapeutic restoration of coordinated movements, plantar placements and weight-bearing by the hind limbs.

[2] = Spasticity in previously untreated spinal cord transected rats (Working Example 2); assay type: in vivo, rat; details: 4.0 mg/kg BID intraperitoneally for 7 days
Excerpt: It was noted that some of the untreated rats in Comparative Example A developed severe spasticity three weeks after transection.

[3] = Blood pressure after administration, cat; assay type: in vivo
[4] = Blood pressure after administration, sheep; assay type: in vivo
[5] = 5.0 mg/kg intraperitoneal 24 hours post surgery

## Cn1c(=O)c2c(ncn2CC(=O)NC(=N)N)n(C)c1=O [C, Guanidino-7-Acetyltheophylline]
[1]; [5]
  time after initial administration until bloody eyes and nose condition had abated: 12 h
  time after spinal cord transection until bloody eyes and nose condition had abated: ≤ 36 h
[1]; after each intraperitoneal administration, starting 24 hours post-transection
  time post injection until return of reflexes (tail-flick, cross-extension): ≤ 12 min
[1]; six spinal transected rats, 5.0 mg/kg intraperitoneal from 24 hours post surgery
  period until walking movements of the hind limbs coordinated with the front limbs, proper plantar placement and full weight bearing: 7 to 9 days
[1]; spinal transected rats, 5.0 mg/kg intraperitoneal
  signs of sedation or lethargy during the course of treatment: did not exhibit any signs of sedation or lethargy
[1]; spinal transected rats, intraperitoneal
  time until the response became sustained with long-term restoration of coordinated movements: 8 to 11 days
[2]; three spastic control rats three weeks after transection
  time until marked decrease in spasticity: ≤ 4 days
[2]; three spastic control rats
  time until complete elimination of spasticity: 7 days
[3]
  blood pressure immediately after administration: slight increase
  time until blood pressure returned to basal level: ≤ 10 min
[4]
  blood pressure immediately after administration: slight increase
  time until blood pressure returned to basal level: ≤ 10 min
